Experimental data as given in patent US12384806B2, “Isopaucifloral F phosphate compound and pharmaceutical use thereof” (FUDAN UNIVERSITY, priority 2020, dated 2025).

Assays:
[1] = tested on: mouse osteoblast precursor cells MC3T3-E1 Subclone 14; assay: Differentiation-promoting effect, ALP enzyme activity assay; type: cell-based; settings: for ALP enzyme activity relative values (experimental group/blank group): 6th day
Excerpt: (2) Study on the differentiation-promoting effect of compounds on mouse osteoblast precursor cells MC3T3-E1 Subclone 14 (see Table 2): MC3T3-E1 subclone 14 cells were digested with pancreatin and collected and then seeded into a 6-well plate at 4×10^4/well. […] The administration concentrations of the compounds were 10^−4˜10^−9 M, respectively; and the administration concentration of the positive control drug group genistein GEN was 10^−6 M, a concentration at which it had the highest osteogenesis promoting ability as reported in the literature. On the 6th day of administration, each well was washed twice with PBS, 150 uL of Western and IP cell lysate (with no protein inhibitor, commercially available from Beyotime) was then added to lyse the cells. This operation was performed on ice. 50 uL of cell lysate was diluted to 250 uL with PBS. 50 uL of dilution was additionally transferred to a 96-well plate for an ALP enzyme activity assay. The absorbance of each well in the 96-well plate was measured with a microplate reader at 405 nm.

[2] = tested on: mouse osteoblast precursor cells MC3T3-E1 Subclone 14; assay: Proliferation-promoting effect by MTT assay; type: cell-based; settings: for Proliferation Rate: 6th day, MTT
Method: Genistein and estradiol were used as positive control groups. MC3T3-E1 Subclone 14 was cultured using the α-MEM medium containing 10% FBS in a constant temperature incubator at 37° C. with 5% CO2. The MC3T3-E1 Subclone 14 cells in logarithmic growth phase and in good condition were digested with addition of an appropriate amount of trypsin (commercially available from GIBCO), and the cells were collected. The cells were resuspended in the α-MEM medium containing 10% FBS, and seeded on a 96-well plate at an amount of 2000 cells per well. After cell adhesion, the medium was changed to the α-MEM medium containing 10% FBS of different concentrations of compounds at 200 μL per well. The cells with the culture fluid containing 0.2% DMSO added thereto were used as a negative control group of the medium. The medium was added to the wells without seeded cells as a blank control group. Six replicate wells were set for each concentration. The medium was changed once every 2 days, and on the 6th day of administration, a 20 μL MTT/PBS solution at 5 mg/mL was added to the above 96-well plate, and the incubation was continued for 4 hours. After the time point, the liquid was carefully aspirated and 150 μL of DMSO was added to each well to completely dissolve the purple crystal formazan formed by live cells and MTT. The optical density (OD) value was measured at 490 nm with a microplate reader. The proliferation rate was calculated according to the following formula: Proliferation rate=[(the average OD value of the administration group−the average OD value of the blank group)/(the average OD value of the culture fluid control group−the average OD value of the blank group)].

[3] = tested on: osteoblasts; assay: Formation of calcium nodules in osteoblasts (Alizarin Red); type: cell-based, mouse; settings: 15th day
Method: (3) Study on the effect of target compounds on the formation of calcium nodules in osteoblasts (see FIG. 1 and Table 3 for details): after being digested, the cells were seeded into a 6-well plate at 4×10^4/well. […] The administration concentrations of the compounds were 10^−4˜10^−9 M, respectively; and the concentration of genistein is 10^−6 M. On the 15th day of administration, the medium was aspirated, each well was then washed twice with PBS, the cells were then fixed with 95% ethanol for 10 minutes and rinsed twice with double distilled water. 2 mL of a 0.1% Alizarin Red-Tris. HCl solution (PH=8.3) was added to each well, the cells were incubated at 37° C. for 30 minutes, then rinsed with double distilled water for several times, dried, and mounted. The formation of calcium nodules was further observed by taking pictures under a 40× microscope. Afterwards, 1 mL of a 10% cetylpyridinium chloride solution was added to each well, and the incubation was carried out for 30 minutes to release the Alizarin Red staining. The solution was transferred to a 96-well plate at 200 uL per well, the absorbance was measured at 562 nm using a microplate reader, and a quantitative analysis of calcium nodules was performed.

[4] = Determination of lipid-water partition coefficients (n-octanol/water, HPLC); type: physicochemical; settings: 37° C.
Method: (1) Determination of lipid-water partition coefficients: a standard curve was first made. […] Their respective solution was subjected to the HPLC sample injection analysis. HPLC conditions were: mobile phase: 5%˜95% acetonitrile/water, gradient elution, a flow rate of 0.6 mL/min, a sample injection volume of 10 μL, a detection wavelength of 254/280 nm, run for 20 min. The retention time and peak area were recorded, and the standard curve was obtained by regressing the concentration and the peak area.
Moreover, 10 mL of water and 10 mL of n-octanol were taken into a 25 mL eggplant-shaped flask and stirred for 24 hours until the two phases were saturated with each other. The mixed solution was then transferred to a separatory funnel. Let it stand for liquid separation. 1 mL of the upper layer (saturated n-octanol layer) was taken, about 2 mg of the compound to be tested was added to vortex for 5 minutes to fully dissolve, and 1 mL of saturated aqueous phase was additionally taken and mixed with the saturated n-butanol phase in which the compound was dissolved. After vortexing for 5 minutes and oscillation for 24 hours in a water bath at 37° C., centrifugation was performed at 3500 rpm for 15 minutes. The upper n-octanol layer and the lower aqueous layer were respectively taken for the sample injection analysis under HPLC conditions. […]

[5] = tested on: mouse mononuclear macrophages RAW264.7; assay: Bone resorption inhibition: TRAP-positive multinucleated osteoclast count; type: cell-based; settings: 5 days; for Number of Osteoclasts (cell): control group 117
Method: After being cultured for 5 days, the cells were stained with a tartrate-resistant acid phosphatase TRAP incubation solution, mounted with glycerol gelatin, and observed under light microscope to count stained TRAP-positive multinucleated cells (as shown in FIG. 2). The inhibition rate of the administrated drug on the number of TRAP-positive multinucleated cells is (nTRAP-positive multinucleated osteoclasts in the negative control group−nTRAP-positive multinucleated osteoclasts in the drug administration group)/nTRAP-positive multinucleated osteoclasts in the negative control group×100%.

[6] = Metabolic stability in human liver microsomes; type: in vitro ADME; settings: 37° C.
Method: Experimental method: the incubation system comprising human liver microsomes, cofactors, and PBS was pre-incubated at 37° C. for 3 minutes, and a substrate was added to start the reaction. Sampling was performed at 0, 1, 5, 10, 15, 20, 30, and 60 minutes after the start of the reaction, and an appropriate terminator was added to terminate the reaction. Sample treatment (n=3): appropriate internal standards were added to each; after vortexing, centrifugation was performed at a high speed, the supernatant was taken, and the substrate was detected by employing HPLC-MS/MS. The peak area at a time point 0 min was taken as 100%. Peak areas at other time points were converted to the remaining percentage, the natural logarithm of the remaining percentage at each time point versus incubation time was plotted, and a slope (−k) was calculated by linear regression, and then CLint (mL·min^−1·mg^−1) was calculated based on the inherent clearance (CLint)=(k×the volume of incubation solution)/mass of liver microsomes.

[7] = molecular target: estrogen receptor ERβ (Homo sapiens, UniProt Q92731); assay: Estrogen receptor agonism (earlier experiments of the research team)
estrogen receptor ERβ, sequence (Q92731 whole entry): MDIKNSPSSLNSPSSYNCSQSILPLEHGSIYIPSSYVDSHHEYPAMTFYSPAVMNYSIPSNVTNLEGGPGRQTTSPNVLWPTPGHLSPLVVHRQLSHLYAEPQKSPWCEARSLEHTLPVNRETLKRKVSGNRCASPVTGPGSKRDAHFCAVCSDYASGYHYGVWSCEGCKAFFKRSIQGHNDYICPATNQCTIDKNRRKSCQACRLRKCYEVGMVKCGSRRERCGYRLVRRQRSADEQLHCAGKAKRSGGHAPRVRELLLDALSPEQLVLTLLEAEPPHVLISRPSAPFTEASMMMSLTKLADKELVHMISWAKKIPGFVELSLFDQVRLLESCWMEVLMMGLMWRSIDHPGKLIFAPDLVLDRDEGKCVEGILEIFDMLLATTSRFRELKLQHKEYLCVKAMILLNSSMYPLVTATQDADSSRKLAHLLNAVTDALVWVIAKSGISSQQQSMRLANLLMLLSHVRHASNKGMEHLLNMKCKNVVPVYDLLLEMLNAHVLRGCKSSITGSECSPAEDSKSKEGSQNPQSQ

| SMILES | ALP enzyme activity relative values (experimental group/blank group) ([1]; 10^−4 M) | ALP enzyme activity relative values (experimental group/blank group) ([1]; 10^−5 M) | ALP enzyme activity relative values (experimental group/blank group) ([1]; 10^−6 M) | ALP enzyme activity relative values (experimental group/blank group) ([1]; 10^−7 M) | ALP enzyme activity relative values (experimental group/blank group) ([1]; 10^−8 M) | ALP enzyme activity relative values (experimental group/blank group) ([1]; 10^−9 M) | Proliferation Rate ([2]; 10^−4 M) | Proliferation Rate ([2]; 10^−5 M) | Proliferation Rate ([2]; 10^−6 M) | Proliferation Rate ([2]; 10^−7 M) | Proliferation Rate ([2]; 10^−8 M) | Proliferation Rate ([2]; 10^−9 M) | Relative values of calcium nodule amount (experimental group/blank group) ([3]; 10^−8 M) | Relative values of calcium nodule amount (experimental group/blank group) ([3]; 10^−6 M) | Number of Osteoclasts (cell) ([5]; 10^−6 M) | Number of Osteoclasts (cell) ([5]; 10^−8 M) | other results |
| --- | --- | --- | --- | --- | --- | --- | --- | --- | --- | --- | --- | --- | --- | --- | --- | --- | --- |
| CCOP(=O)(OCC)OC1=C(c2cc(OC)cc(OC)c2)C(c2ccc(OP(=O)(OCC)OCC)cc2)c2c(OC)cc(OC)cc21 (stereo not drawn) [7a] | 2.362 ± 0.04 | 1.440 ± 0.31 | 1.023 ± 0.05 | 0.877 ± 0.01 | 0.860 ± 0.01 | 0.861 ± 0.05 | – | – | – | – | – | – | – | – | – | – | – |
| CCOP(=O)(OCC)OC1=C(c2cc(OC)cc(OC)c2)C(c2ccc(OC)cc2)c2c(OC)cc(OC)cc21 (stereo not drawn) [7b] | 0.919 ± 0.04 | 0.986 ± 0.17 | 0.993 ± 0.01 | 1.195 ± 0.02 | 1.097 ± 0.07 | 0.899 ± 0.11 | – | – | – | – | – | – | – | – | – | – | – |
| C[C@]12CC[C@@H]3c4ccc(O)cc4CC[C@H]3[C@@H]1CC[C@@H]2O [E2, estradiol] | – | – | – | – | 1.050 ± 0.02 | – | 0.05 ± 0.002 | 0.82 ± 0.003 | 1.07 ± 0.019 | 1.08 ± 0.003 | 1.07 ± 0.005 | 1.06 ± 0.003 | 1.007 ± 0.02 | – | – | – | – |
| O=c1c(-c2ccc(O)cc2)coc2cc(O)cc(O)c12 [GEN, genistein] | – | – | 1.341 ± 0.01 | – | – | – | 0.02 ± 0.0003 | 0.71 ± 0.007 | 1.05 ± 0.019 | 0.99 ± 0.003 | 1.01 ± 0.005 | 1.03 ± 0.003 | – | 1.028 ± 0.03 | – | – | – |
| O=C1c2cc(O)cc(O)c2[C@@H](c2ccc(O)cc2)[C@@H]1c1cc(O)cc(O)c1 [Isopaucifloral F, isopaucifloral F] | 0.732 ± 0.03 | 0.951 ± 0.04 | 0.954 ± 0.02 | 1.135 ± 0.06 | 1.029 ± 0.11 | 0.864 ± 0.05 | 1.24 ± 0.028 | 1.06 ± 0.014 | 1.02 ± 0.024 | 0.98 ± 0.020 | 0.98 ± 0.045 | 0.95 ± 0.016 | 0.917 ± 0.03 | 0.932 ± 0.03 | 85 | 102 | log P [4]: 1.34; proliferation rates ([2]; highest value of each compound, concentration not given): 124%; ALP enzyme activity, times those of the control group ([1]; highest value, concentration not given): 1.14 times; ALP enzyme activity increased by ([1]; versus control group, concentration not given): 13.5%; Relative values of calcium nodule amount (experimental group/blank group) ([3]; 10^−4 M): 0.982 ± 0.04; Relative values of calcium nodule amount (experimental group/blank group) ([3]; 10^−5 M): 0.915 ± 0.03; Relative values of calcium nodule amount (experimental group/blank group) ([3]; 10^−7 M): 0.964 ± 0.03; Relative values of calcium nodule amount (experimental group/blank group) ([3]; 10^−9 M): 0.916 ± 0.03; Relative Inhibition Rates (%) ([5]; 10^−4 M): 28.2%; Number of Osteoclasts (cell) ([5]; 10^−4 M): 84 cell; Relative Inhibition Rates (%) ([5]; 10^−6 M): 27.4%; Relative Inhibition Rates (%) ([5]; 10^−8 M): 12.8%; CLint(liver) [6]: 123.4 mL/min/kg; T1/2 [6]: 10.1 min; activity at estrogen receptor ERβ [7]: selective agonist |
| O=C(c1ccc(OCCN2CCCCC2)cc1)c1c(-c2ccc(O)cc2)sc2cc(O)ccc12 [Raloxifene] | – | – | – | – | – | – | – | – | – | – | – | – | – | – | 64 | 67 | inhibition at 1 µM ([5]; Mus musculus, RAW264.7, 120 h, 10^−6 M, read-out: Relative Inhibition Rates (%)): 45.3%; inhibition at 0.01 µM ([5]; Mus musculus, RAW264.7, 120 h, 10^−8 M, read-out: Relative Inhibition Rates (%)): 42.7% |
